Laboratory results: patent US20180353462A1, “[…] AGENTS […] FLAVONOID DERIVATIVES TARGETING KINASES, SIRTUINS AND ONCOGENIC AGENTS FOR THE TREATMENT OF CANCERS” (priority 2015, published 2018)

Columns and labels:
DYRK1/DYRK1A = target: T1, DYRK1/DYRK1A (Homo sapiens, UniProt Q13627); assay: Kinase competition binding assay, DYRK1/DYRK1A; details: Table 1 kinase panel
T1 construct: made in house
Description: (§1) Cannabis flavonoids and their analogs were subjected to kinase inhibition assay. The compounds were first screened at a single concentration of 10 μM in the primary assay. […]. To determine the kd or IC50 values, competition binding assays were established, authenticated and executed as described previously. Fabian et al., “A Small Molecule-Kinase Interaction Map For Clinical Kinase Inhibitors.”, Nat Biotechnol, 23(3):329-36, Epub (2005). See also, Karaman et al., “A Quantitative Analysis Of Kinase Inhibitor Selectivity”, Nat. Biotechnol. […] For most assays, kinases were fused to T7 phage strains (Fabian, supra) and for the other assays, kinases were produced in HEK-293 cells after which they were tagged with DNA for quantitative PCR detection. In general, full-length constructs were used for small, single domain kinases, and catalytic domain constructs for large multi-domain kinases. The binding assays utilized streptavidin-coated magnetic beads treated with biotinylated small molecule ligands for 30 minutes at room temperature which generated affinity resins for the kinase assays. The liganded beads were blocked with excess biotin and washed with blocking buffer (SeaBlock (Pierce), 1% BSA, 0.05% Tween 20, 1 mM DTT) to remove unbound ligand and to reduce non-specific phage binding. […] Test compounds were prepared as 40× stocks in 100% DMSO and diluted directly into the assay (Final DMSO concentration=2.5%). All reactions were performed in polypropylene 384-well plates in a final volume of 0.04 ml. […] The beads were then re-suspended in elution buffer (1×PBS, 0.05% Tween 20, 0.5 μM non-biotinylated affinity ligand) and incubated at room temperature with shaking for 30 minutes. The kinase concentration in the eluates was measured by quantitative PCR. An illustration of the kinase interaction process is presented below. Kd/IC50 values were determined using a standard dose response curve using the hill equation. Curves were fitted using a non-linear least square fit with the Levenberg-Marquardt algorithm.
(§2) The compound(s) were screened at 10 μM and results for primary screen binding interactions are reported as ‘% Ctrl’, where lower numbers indicate stronger hits in the matrix.

PIM-3 = target: T2, PIM-3 (Homo sapiens, UniProt Q86V86); assay: Kinase competition binding assay, PIM-3; details: Table 1 kinase panel
T2 construct: full-length constructs were used for small, single domain kinases; T7 phage fusion (most assays) or DNA tag for qPCR (HEK-293-made kinases); made in house
Description: as §1, §2

CFPAC-1 (Pancreatic) = assay: WST-1 anticancer cell proliferation assay, CFPAC-1; format: cell-based, human; details: 72 hours
Description: Bioactivity of the above-described compounds has been verified by an anticancer cell proliferation assay using the WST-1 (4-[3-(4-iodophenyl)-2-(4-nitrophenyl)-2H-5-tetrazolio]-1, 3-benzene disulfonate) colorimetric assay by Roche Life Sciences®. Anticancer activity was tested against several standard cancer cell lines including brain, breast, Kaposi sarcoma, leukemia, lung, melanoma, tenosynovial giant cell tumor, ovarian, pancreatic, colon and prostate cancer. Cells were trypsinized and plated into 96 well plates in 50 μl of media and incubated overnight. The next day approximately 18 hours after plating, 50 μl of media containing the required flavonoid-based pharmaceutical composition was added per well. Cells were plated at a density so that 72 hours post drug addition, the cells will be in log phase (500)-2000 cells/well). The compounds and extracts were solubilized in Dimethyl sulfoxide (DMSO). The cells are allowed to proliferate for 72 hours 37° C. in humidified atmosphere of 5% CO2. The experiment is terminated using WST-1 (Roche®) 10 μl per well and absorbance is read at 450 nm %690 nm. The effect of drugs on growth is assessed as percent of cell viability. The IC50 values were determined from the extract dose versus control growth curves using Graphpad Prism® software. All experiments were carried out in duplicate and the mean results determined.

FGR = target: T3, FGR (Homo sapiens, UniProt P09769); assay: Kinase competition binding assay, FGR; details: Table 1 kinase panel
T3 construct: made in house
Description: as §1, §2

KIT(L576P) = target: T4, KIT(L576P) (Homo sapiens, UniProt P10721, L576P); assay: Kinase competition binding assay, KIT(L576P); details: Table 1 kinase panel
T4 construct: made in house
Description: as §1, §2

SIRT-1 = target: T5, SIRT-1 (Homo sapiens, UniProt Q96EB6); assay: Inhibition of sirtuins, SIRT-1; format: biochemical; details: Table 3 SIRT
T5 sequence (Q96EB6 1-747): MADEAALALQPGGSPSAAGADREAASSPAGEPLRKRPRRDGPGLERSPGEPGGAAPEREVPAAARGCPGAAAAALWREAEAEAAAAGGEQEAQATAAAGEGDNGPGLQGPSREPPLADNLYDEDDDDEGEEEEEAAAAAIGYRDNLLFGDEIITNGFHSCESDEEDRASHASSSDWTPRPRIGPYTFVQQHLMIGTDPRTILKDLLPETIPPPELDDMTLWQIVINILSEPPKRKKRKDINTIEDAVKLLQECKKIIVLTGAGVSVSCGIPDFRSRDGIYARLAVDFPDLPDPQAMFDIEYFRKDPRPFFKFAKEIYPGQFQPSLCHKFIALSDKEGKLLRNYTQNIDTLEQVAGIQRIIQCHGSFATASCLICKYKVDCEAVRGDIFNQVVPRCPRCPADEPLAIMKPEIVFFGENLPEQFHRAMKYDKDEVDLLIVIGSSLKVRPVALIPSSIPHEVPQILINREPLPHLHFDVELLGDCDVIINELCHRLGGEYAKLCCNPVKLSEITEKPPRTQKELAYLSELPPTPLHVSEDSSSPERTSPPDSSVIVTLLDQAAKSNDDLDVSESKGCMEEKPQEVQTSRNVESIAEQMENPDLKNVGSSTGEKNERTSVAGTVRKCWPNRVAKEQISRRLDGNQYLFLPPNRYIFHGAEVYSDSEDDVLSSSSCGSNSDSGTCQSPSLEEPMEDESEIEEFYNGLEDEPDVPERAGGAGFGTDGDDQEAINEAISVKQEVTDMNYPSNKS
From the text: Inhibition of Sirtuins, Matrix Metalloproteinase, Bromodomains was Also Confirmed Using Standard Protocols and the Results are Present in Table 2.

PIM-1 = target: T6, PIM-1 (Homo sapiens, UniProt P11309); assay: Kinase competition binding assay, PIM-1; details: Table 1 kinase panel
T6 construct: full-length constructs were used for small, single domain kinases; T7 phage fusion (most assays) or DNA tag for qPCR (HEK-293-made kinases); made in house
Description: as §1, §2

MELK = target: T7, MELK (Homo sapiens, UniProt Q14680); assay: Kinase competition binding assay, MELK; details: Table 1 kinase panel
T7 construct: made in house
Description: as §1, §2

c-Kit(D820Y) = target: T8, c-Kit(D820Y) (Homo sapiens, UniProt P10721, D820Y); assay: Kinase competition binding assay, c-Kit(D820Y); details: Table 1 kinase panel
T8 construct: made in house
Description: as §1, §2

PIP5K1A = target: T9, PIP5K1A (Homo sapiens, UniProt Q99755); assay: Kinase competition binding assay, PIP5K1A; details: Table 1 kinase panel
T9 construct: T7 phage fusion (most assays) or DNA tag for qPCR (HEK-293-made kinases); made in house
Description: as §1, §2

PDGFRa(T674I) = target: T10, PDGFRa(T674I) (Homo sapiens, UniProt P16234, T674I); assay: Kinase competition binding assay, PDGFRa(T674I); details: Table 1 kinase panel
T10 construct: catalytic domain constructs for large multi-domain kinases; T7 phage fusion (most assays) or DNA tag for qPCR (HEK-293-made kinases); made in house
Description: as §1, §2

COc1cc(-c2cc(=O)c3c(O)c(C/C=C(\C)CCC=C(C)C)c(O)cc3o2)ccc1O [FBL-03A]
IC50 (DYRK1/DYRK1A): > 20000 nM | IC50 (PIM-3): > 20000 nM | IC50 (CFPAC-1 (Pancreatic)): 12 µM | IC50 (FGR): > 20000 nM | IC50 (KIT(L576P)): 180 nM | IC50 (SIRT-1): 19 µM | IC50 (PIM-1): > 20000 nM | IC50 (MELK): > 20000 nM | IC50 (c-Kit(D820Y)): > 20000 nM | IC50 (PIP5K1A): > 20000 nM

COc1cc(-c2cc(=O)c3c(O)cc(O)c(C/C=C(\C)CCC=C(C)C)c3o2)ccc1O [FBL-03C]
IC50 (DYRK1/DYRK1A): 620 nM | IC50 (PDGFRa(T674I)): > 1000 nM | IC50 (PIM-3): > 1000 nM | IC50 (CFPAC-1 (Pancreatic)): 12 µM | IC50 (FGR): > 20000 nM | IC50 (KIT(L576P)): > 1000 nM | IC50 (SIRT-1): 39.5 µM | IC50 (PIM-1): > 1000 nM | IC50 (MELK): > 1000 nM | IC50 (c-Kit(D820Y)): > 20000 nM | IC50 (PIP5K1A): 360 nM

COc1ccc(-c2cc(=O)c3c(O)c(C/C=C(\C)CCC=C(C)C)c(O)cc3o2)cc1OC [FBL-03D]
IC50 (DYRK1/DYRK1A): > 30000 nM | IC50 (PDGFRa(T674I)): > 30000 nM | IC50 (PIM-3): > 30000 nM | IC50 (FGR): > 30000 nM | IC50 (KIT(L576P)): > 30000 nM | IC50 (PIM-1): > 30000 nM | IC50 (MELK): > 30000 nM | IC50 (c-Kit(D820Y)): > 30000 nM | IC50 (PIP5K1A): > 30000 nM

COc1cc(-c2cc(=O)c3c(O)c(CC=C(C)C)c(O)cc3o2)ccc1O [FBL-03B]
IC50 (DYRK1/DYRK1A): < 1000 nM | IC50 (PDGFRa(T674I)): 0.92 nM | IC50 (PIM-3): 173 nM | IC50 (CFPAC-1 (Pancreatic)): 17 µM | IC50 (FGR): 224 nM | IC50 (KIT(L576P)): < 1000 nM | IC50 (SIRT-1): 27.4 µM | IC50 (MELK): 232 nM | IC50 (c-Kit(D820Y)): 1280 nM | IC50 (PIP5K1A): > 10000 nM

COc1cc(-c2cc(=O)c3c(O)cc(O)c(CC=C(C)C)c3o2)ccc1O [FBL-03G]
IC50 (DYRK1/DYRK1A): 36 nM | IC50 (PDGFRa(T674I)): 2360 nM | IC50 (PIM-3): 35 nM | IC50 (CFPAC-1 (Pancreatic)): 14.3 µM | IC50 (FGR): 880 nM | IC50 (KIT(L576P)): < 1000 nM | IC50 (PIM-1): 78 nM | IC50 (MELK): 105 nM | IC50 (c-Kit(D820Y)): 113 nM | IC50 (PIP5K1A): > 20000 nM
